Here are results for six molecules from ChEMBL document CHEMBL1201862, “PubChem BioAssay data set” (2004).

Structures are written as SMILES.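 48-hour exposure; five concentrations; linearly interpolated endpoints. Abbreviation: GI50, concentration required for 50% inhibition of growth.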 Activity calls are given as the source filed them. No stated cut-off is given here; in the data, active = GI50 up to about 1.1 µM and inactive = higher. Some results are limits rather than exact numbers.

As usually defined, the GI50 is the concentration at which growth is held to half of that of the control.

Some test systems named below: HCT-15; SR; Hs-578T; CCRF-CEM; TK-10; NCI-H522; BT-549; HCT-116; DU-145; CAKI-1; SK-MEL-5; MDA-MB-231; OVCAR-4; MOLT-4; RPMI-8226; OVCAR-3; HCC 2998; UACC-62; NCI-H460; NCI/ADR-RES.
What all share (test): DTP human tumour cell line panel, 48 h

Take `Nc1ccccc1SCc1csc(-c2ccc(Cl)cc2)n1`: the GI50 in the experiment on HCT-15 was 26.1 µM; in the experiment on SR, 6.61 µM (inactive); in the experiment on Hs-578T it was 28.2 µM (inactive); with CCRF-CEM, 5.37 µM (inactive); in the experiment on TK-10, 38.1 µM (inactive); in the experiment with NCI-H522, 10.7 µM (inactive). Besides, the GI50 in the experiment with BT-549 is 24.1 µM (inactive); in the experiment with HCT-116, 29 µM (inactive); in the experiment on DU-145, 34.5 µM (inactive); in the experiment with CAKI-1, 51.3 µM (inactive); in the experiment on SK-MEL-5 it was 14.8 µM (inactive); with MDA-MB-231 it was 21.3 µM (inactive). Moreover, the GI50 in the experiment on OVCAR-4 was 21.8 µM (inactive); with MOLT-4, 4.39 µM (inactive); in the experiment on RPMI-8226, 12.7 µM (inactive); with OVCAR-3 it was 20.2 µM (inactive); in the experiment with HCC 2998, 16.4 µM (inactive); with UACC-62 it was 20 µM (inactive). The figures for the GI50 in the experiment with NCI-H460 and with NCI/ADR-RES were 26.2 µM (inactive) and 21.5 µM (inactive), respectively.

On to `N#CC1(Nc2ccc(-c3ccc(NC4(C#N)CCCC4)cc3)cc2)CCCC1`, for which the GI50 in the experiment with HCT-15 was > 100 µM; in the experiment with SR, > 100 µM (inactive); in the experiment on Hs-578T it was > 100 µM (inactive); in the experiment on CCRF-CEM, 0.0104 µM (active); in the experiment on TK-10, > 100 µM (inactive); with NCI-H522, > 100 µM (inactive). Moreover, the GI50 in the experiment on BT-549 is > 100 µM (inactive); with HCT-116, > 100 µM (inactive); with DU-145, > 100 µM (inactive); in the experiment with CAKI-1 it was > 100 µM (inactive); in the experiment on SK-MEL-5, 59 µM (inactive); in the experiment on MDA-MB-231 it was > 100 µM (inactive). For the same molecule, the GI50 in the experiment with OVCAR-4 is > 100 µM (inactive); in the experiment with MOLT-4, 86.1 µM (inactive); in the experiment with RPMI-8226, > 100 µM (inactive); with OVCAR-3, > 100 µM (inactive); in the experiment with HCC 2998, > 100 µM (inactive); with UACC-62, > 100 µM (inactive). Further, the GI50 in the experiment on NCI-H460 and with NCI/ADR-RES was > 100 µM (inactive) throughout.

For `O=C(NCCCNCCCCNCCCNC(=O)c1cc(-c2ccccc2)nc2ccccc12)c1cc(-c2ccccc2)nc2ccccc12`, the GI50 in the experiment on HCT-15 was 20.1 µM; in the experiment on SR it was 1.97 µM (inactive); with Hs-578T it was 1.75 µM (inactive); in the experiment on CCRF-CEM, 1.88 µM (inactive); in the experiment with TK-10, 8.07 µM (inactive); with NCI-H522, 2.01 µM (inactive). The GI50 was 3.13 µM (inactive) in the experiment on BT-549; 3.09 µM (inactive) in the experiment with HCT-116; 17.6 µM (inactive) in the experiment with DU-145; 20.3 µM (inactive) in the experiment on CAKI-1; 2.61 µM (inactive) in the experiment with SK-MEL-5; 7.06 µM (inactive) in the experiment with MDA-MB-231. Moreover, the GI50 with OVCAR-4 is 2.64 µM (inactive); in the experiment on MOLT-4, 1.9 µM (inactive); in the experiment on RPMI-8226 it was 2.16 µM (inactive); with OVCAR-3, 2.66 µM (inactive); with HCC 2998, 2.01 µM (inactive); in the experiment with UACC-62, 2.16 µM (inactive). Further, the GI50 was 2.32 µM (inactive) in the experiment on NCI-H460 and 28.4 µM (inactive) with NCI/ADR-RES.

With `O=C(O)CCCN1CCCCC1`, the GI50 is > 100 µM in the experiment on HCT-15; > 100 µM (inactive) in the experiment with SR; > 100 µM (inactive) in the experiment on Hs-578T; > 100 µM (inactive) in the experiment with CCRF-CEM; > 100 µM (inactive) in the experiment with TK-10; > 100 µM (inactive) in the experiment with NCI-H522. For the same molecule, the GI50 with BT-549, in the experiment on HCT-116, in the experiment on DU-145, in the experiment on CAKI-1, with SK-MEL-5 and in the experiment with MDA-MB-231 was > 100 µM (inactive) each time. Also, the GI50 in the experiment with OVCAR-4, in the experiment with MOLT-4, in the experiment with RPMI-8226, in the experiment on OVCAR-3, in the experiment on HCC 2998 and in the experiment on UACC-62 was > 100 µM (inactive) each time. For the same molecule, the GI50 in the experiment with NCI-H460 and in the experiment on NCI/ADR-RES was > 100 µM (inactive) throughout.

On to `O=C(O)CCC(=O)Nc1ccc2c(c1)S(=O)(=O)N(CC(=O)O)C2=O`, for which the GI50 in the experiment on HCT-15 was > 100 µM; with SR it was > 100 µM (inactive); in the experiment with Hs-578T it was > 100 µM (inactive); in the experiment on CCRF-CEM, > 100 µM (inactive); in the experiment on TK-10 it was > 100 µM (inactive); in the experiment with NCI-H522, > 100 µM (inactive). Also, the GI50 in the experiment with BT-549, in the experiment with HCT-116, with DU-145, with CAKI-1, with SK-MEL-5 and in the experiment with MDA-MB-231 was > 100 µM (inactive) each time. In addition, the GI50 in the experiment with OVCAR-4, in the experiment with MOLT-4, in the experiment with RPMI-8226, in the experiment on OVCAR-3, in the experiment with HCC 2998 and with UACC-62 was > 100 µM (inactive) in each case. Besides, the GI50 in the experiment with NCI-H460 and in the experiment with NCI/ADR-RES was > 100 µM (inactive) throughout.

In the case of `CN(C)c1ccc(/C=C/c2cc(-c3ccccc3)[n+](C)n2-c2ccccc2)cc1`, the concentration for 50% growth inhibition (GI50) is 3.61 µM with HCT-15; 0.103 µM (active) with SR; 0.0332 µM (active) in the experiment with Hs-578T; 0.035 µM (active) in the experiment on CCRF-CEM; 1.7 µM (inactive) in the experiment with TK-10; < 0.01 µM (active) with NCI-H522. Besides, the GI50 with BT-549 is 0.0571 µM (active); in the experiment with HCT-116, 0.125 µM (active); with DU-145, 0.215 µM (active); in the experiment with CAKI-1, 1.91 µM (inactive); in the experiment on SK-MEL-5, 0.0341 µM (active); with MDA-MB-231, 0.242 µM (active). In addition, the GI50 in the experiment on OVCAR-4 is 6.41 µM (inactive); in the experiment with MOLT-4, 0.144 µM (active); in the experiment with RPMI-8226, 0.0221 µM (active); with OVCAR-3, 0.234 µM (active); in the experiment with HCC 2998, 1.64 µM (inactive); with UACC-62, 0.481 µM (active). The GI50 was 0.122 µM (active) in the experiment with NCI-H460 and 4.5 µM (inactive) in the experiment on NCI/ADR-RES.
